Assay results reported in patent EP0022478B1, “Polyhydro-3,7-dimethyl-8-(2-(tetrahydro-4-hydroxy-6-oxo-2H-pyran-2-yl)-ethyl)-1-naphthylenyl-2-methylbutanoates, corresponding hydroxy acids, process for preparing and pharmaceutical compositions containing the same” (Merck & Co., Inc., priority 1979, dated 1981).
Counter-ions that a name gives are not always drawn. Like-named read-outs stand apart in the source and are kept apart here. Each block holds one molecule with its values, some of them ahead of it.

Key:
[1] = Stability of the hydroxy acid on standing
HMG-CoA Reductase = biological target: T1, HMG-CoA Reductase (Rattus norvegicus, UniProt P51639); assay: In vitro inhibition of HMG Coenzyme A reductase, Beg method modified by 5 min preincubation of enzyme with inhibitor; format: biochemical; details: modified procedure; read-out: IC50 in inhibiting HMG-CoA Reductase
T1 sequence (P51639 1-887): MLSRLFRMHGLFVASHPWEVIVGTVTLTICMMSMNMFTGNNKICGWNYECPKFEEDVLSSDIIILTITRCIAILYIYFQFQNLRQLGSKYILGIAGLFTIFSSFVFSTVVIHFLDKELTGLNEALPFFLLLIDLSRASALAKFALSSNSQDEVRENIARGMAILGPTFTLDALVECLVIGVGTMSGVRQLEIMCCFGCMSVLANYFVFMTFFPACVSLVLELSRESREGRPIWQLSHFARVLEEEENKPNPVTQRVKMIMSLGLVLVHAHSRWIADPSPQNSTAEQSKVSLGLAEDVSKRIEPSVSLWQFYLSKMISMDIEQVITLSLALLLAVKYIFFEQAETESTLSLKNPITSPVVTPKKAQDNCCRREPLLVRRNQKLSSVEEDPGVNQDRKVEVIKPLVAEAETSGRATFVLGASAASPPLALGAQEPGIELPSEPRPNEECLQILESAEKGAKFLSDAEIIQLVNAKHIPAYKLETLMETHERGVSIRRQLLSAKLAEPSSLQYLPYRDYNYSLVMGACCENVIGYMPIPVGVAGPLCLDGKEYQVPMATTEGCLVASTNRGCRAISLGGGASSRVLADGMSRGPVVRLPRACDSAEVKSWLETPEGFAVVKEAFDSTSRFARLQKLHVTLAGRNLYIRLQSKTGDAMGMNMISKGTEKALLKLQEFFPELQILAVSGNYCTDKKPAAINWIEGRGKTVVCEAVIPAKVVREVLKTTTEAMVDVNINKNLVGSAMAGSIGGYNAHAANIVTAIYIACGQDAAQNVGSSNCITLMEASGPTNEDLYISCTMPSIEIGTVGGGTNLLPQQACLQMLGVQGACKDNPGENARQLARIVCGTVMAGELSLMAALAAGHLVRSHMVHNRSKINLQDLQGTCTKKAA
Protocol: The method of Beg et al., FEBS Letters, 80 123 (1977) was modified slightly by incubating the enzyme with the inhibitor for five minutes before initiating the reaction with the substrate.

cholesterol synthesis = assay: In vivo inhibition of cholesterol synthesis (14C acetate into 14C cholesterol); parameters: species or system male Holtzman rats; details: 14C acetate IP after one hour, bled 50 minutes later
Protocol: Groups of male Holtzman rats were dosed with either 5% emulphor in saline or test compound in emulphor by stomach tube. After one hour 80 µCi of ^14C acetate/kg was given IP. The rats were bled 50 minutes later and ^14C cholesterol was determined as a measure of sterol synthesis: […]

mouse L―M cells = biological target: T2, mouse L―M cells (Mus musculus, UniProt Q01237); assay: Inhibition of sterol synthesis in cell culture (14C sterol from 14C acetic acid); format: cell-based
T2 sequence (Q01237 1-887): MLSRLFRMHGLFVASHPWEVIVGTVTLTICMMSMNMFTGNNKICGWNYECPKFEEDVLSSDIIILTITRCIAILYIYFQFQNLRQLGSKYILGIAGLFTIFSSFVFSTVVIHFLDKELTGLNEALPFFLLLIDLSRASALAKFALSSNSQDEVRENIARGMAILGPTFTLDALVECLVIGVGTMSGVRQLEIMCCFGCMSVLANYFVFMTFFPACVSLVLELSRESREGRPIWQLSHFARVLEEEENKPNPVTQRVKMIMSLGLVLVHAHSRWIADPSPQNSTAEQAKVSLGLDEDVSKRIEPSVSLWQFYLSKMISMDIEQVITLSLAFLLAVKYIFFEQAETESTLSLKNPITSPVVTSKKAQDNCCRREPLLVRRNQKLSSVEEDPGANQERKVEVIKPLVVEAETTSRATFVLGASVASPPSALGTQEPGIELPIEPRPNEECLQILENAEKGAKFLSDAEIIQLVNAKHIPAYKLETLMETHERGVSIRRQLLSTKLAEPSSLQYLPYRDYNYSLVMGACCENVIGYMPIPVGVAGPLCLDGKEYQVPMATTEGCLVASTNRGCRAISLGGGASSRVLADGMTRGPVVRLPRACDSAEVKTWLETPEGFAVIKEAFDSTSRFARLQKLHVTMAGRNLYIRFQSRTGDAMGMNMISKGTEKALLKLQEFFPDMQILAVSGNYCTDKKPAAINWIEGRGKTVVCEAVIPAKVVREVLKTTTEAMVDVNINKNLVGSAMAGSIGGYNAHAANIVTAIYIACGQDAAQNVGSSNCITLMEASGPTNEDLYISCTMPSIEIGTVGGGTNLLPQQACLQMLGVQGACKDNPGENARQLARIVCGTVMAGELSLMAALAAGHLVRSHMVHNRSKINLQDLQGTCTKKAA
Protocol: The procedure of A. W. Alberts et al., J. Biol. Chem. 249: 5241 (1974) measuring the quantity of ^14C sterol biosynthesis frofdm ^14C acetic acid in mouse L―M cells in culture was employed with modification. The test compound in 10 µl DMSO was added to the monolayer cultures with 5 µCi of ^14C acetate. After a 3 hour incubation, the cells were saponified and the ^14C sterol extracted and isolated by thin layer chromatography on silica gel using petroleum ether-diethyl ether-acetic acid (75:25:1). The region on the plate containing ^14C sterol was identified by staining with 12 and the ^14C content determined by liquid scintillation counting.

[2] = mouse L-M cell monolayers, 3 hour incubation with 14C acetate; read-out: IC50 in inhibiting HMG-CoA reductase

SMILES: CCC(C)C(=O)O[C@H]1C[C@@H](C)C=C2C=C[C@H](C)[C@H](CC[C@@H]3C[C@@H](O)CC(=O)O3)[C@H]21 (stereo partly drawn) [Compound I]
- IC50 (mouse L―M cells; read-out: IC50 in inhibiting HMG-CoA reductase; mouse L-M cell monolayers, 3 hour incubation with 14C acetate): 22 nM

SMILES: CC[C@H](C)C(=O)O[C@H]1CCC=C2C=C[C@H](C)[C@H](CC[C@@H]3C[C@@H](O)CC(=O)O3)[C@H]21 [ML236B, compactin, reference compound]
- IC50 (HMG-CoA Reductase): 5.4 nM
- IC50 (mouse L―M cells; [2]): 46 nM

The next lines start with results.

- stability of hydroxy acid on standing [1]: slowly reverts to the lactone
SMILES: CCC(C)C(=O)OC1CC(C)CC2C=CC(C)C(CCC(O)CC(O)CC(=O)O)C21 (stereo not drawn) [Compound IV]

- IC50 (HMG-CoA Reductase): 2.7 nM
SMILES: CCC(C)C(=O)O[C@H]1C[C@@H](C)C[C@@H]2C=C[C@H](C)[C@H](CC[C@@H](O)C[C@@H](O)CC(=O)O)[C@@H]12 (stereo partly drawn) [sodium salt of Compound IV]

- IC50 (mouse L―M cells; [2]): 17 nM
SMILES: CCC(C)C(=O)O[C@H]1C[C@@H](C)C[C@@H]2C=C[C@H](C)[C@H](CC[C@@H]3C[C@@H](O)CC(=O)O3)[C@@H]12 (stereo partly drawn) [Compound II]
- % Inhibition (cholesterol synthesis; dose 0.15 mg/kg by stomach tube): 38%
- % Inhibition (cholesterol synthesis; dose 0.6 mg/kg by stomach tube): 51%
- % Inhibition (cholesterol synthesis; dose 1.2 mg/kg by stomach tube): 70%
